Columns and labels:
[1] = tested on: HC6X cells
Protocol: We cultured HC6X cells (both in an H9 background and in an) BJ1-iPSc background in 384 well format in AAGLY-supplemented medium.
PSC, HC3X and HC6X cells were differentiated in a 384 well format. Cells were treated with 14 different concentrations of compounds in 6 repeats. As a negative control 41 wells were left untreated. After 24 h of exposure media was aspirated and fresh media was added to the cells supplemented with 0.3 mM of DRAQ 7 (Abcam; ab109202) and Hoechst dye (1/1000, Sigma, 33258) for 25 min at 37°. Cells were fixed with 4% paraformaldehyde. Imaging was done using an Operetta High-Content Imaging System (Perkin Elmer) and image analysis was performed using Harmony software (Perkin Elmer). Relative cell number was calculated as the percentage of living cells (draq7 positive amount subtracted from the Hoechst positive amount) relative to the average of living cells in the control wells. As a positive control, 2 donors of PHHs were seeded at 10 000 cells per well. Drugs were administrated after 8 hours of attachment. HepG2 cells were seeded at 40 000 cells per well. For control conditions HepG2 cells were exposed after 2 days of culture. For AAGLY conditions HepG2 cells were maintained in the supplemented medium for 30 days before exposure.

[2] = tested on: HepG2 cells
Protocol: PSC, HC3X and HC6X cells were differentiated in a 384 well format. Cells were treated with 14 different concentrations of compounds in 6 repeats. As a negative control 41 wells were left untreated. After 24 h of exposure media was aspirated and fresh media was added to the cells supplemented with […] of DRAQ 7 (Abcam; ab109202) and Hoechst dye (1/1000, Sigma, 33258) for 25 min at 37°. Cells were fixed with 4% paraformaldehyde. Imaging was done using an Operetta High-Content Imaging System (Perkin Elmer) and image analysis was performed using Harmony software (Perkin Elmer). Relative cell number was calculated as the percentage of living cells (draq7 positive amount subtracted from the Hoechst positive amount) relative to the average of living cells in the control wells. As a positive control, 2 donors of PHHs were seeded at 10 000 cells per well. Drugs were administrated after 8 hours of attachment. HepG2 cells were seeded at 40 000 cells per well. For control conditions HepG2 cells were exposed after 2 days of culture.

CC(=O)Nc1ccc(O)cc1 [APAP, acetaminophen]
Toxicity [1]: no toxicity | Toxicity [2]: not able to pick up toxicity

From patent publication US20200199528A1, “CELL CULTURE MEDIA FOR DIFFERENTIATION OF STEM CELLS INTO HEPATOCYTES” (KATHOLIEKE UNIVERSITEIT LEUVEN, priority 2017, published 2020)
